{"source": "patent US11465972B2", "about": "“Inhibitors of oxidized low-density lipoprotein receptor 1 and methods of use thereof” (United States Government as represented by the Department …, priority 2015, dated 2022)", "key": {"human LOX-1": {"target": "human LOX-1 (Homo sapiens, UniProt P78380)", "experiment": "Thermal shift assay with purified LOX-1 protein", "assay_type": "binding", "set-up": "It encodes for 147 amino acids for the LOX-1 fragment (residues 136-273); made in house; host or cells: E. coli BL21 (DE3), co-expressed with DsbC", "details": "for thermal shift (in words): differential scanning fluorimetry; for thermal shift of LOX-1 protein: LOX-1 protein 4 μM, ligand 50 μM, shifts in Celsius", "source_text": "FIG. 2A, FIG. 2B and FIG. 2C depict the docking of the 5 lead compounds and the thermal denaturation assay: (FIG. 2A) The figure depicts the docking of the 5 lead compounds in the binding pocket of LOX-1. LOX-1 is shown as a ribbon model with one monomer in magenta and the other in blue. The compounds are shown as stick models in separate colors. (FIG. 2B) Hydrogen bonding interactions of the compounds as they dock to LOX-1. (FIG. 2C) The measured thermal shifts (in Celsius) are depicted for all five molecules. The solutions contained LOX-1 protein at 4 μM concentration. The ligand concentrations were 50 μM.\nAs the next step, a protein assay was performed to assess the interaction of the lead compounds with LOX-1 protein for an additional confirmation of the binding to LOX1. The extracellular domain of LOX-1 was expressed and the protein was purified. Using the purified protein, a thermal shift assay was performed. The technique involves measuring thermal denaturation temperatures of the protein in the presence and absence of inhibitors. A larger shift in thermal denaturation is indicative of a tight binding of the ligand to the protein.\nIn short, the thermal shift assay was performed using a real-time PCR detection system with the fluorescent dye sypro orange to monitor protein unfolding. Fluorescence increases upon protein unfolding because sypro orange has higher quantum in lower dielectric medium and low quantum in higher dielectric medium. During the thermal shift assay a protein exposes the hydrophobic region which corresponds to a lower dielectric environment. The thermal shift assay instrument contains accurate temperature control devices and a CCD detector for simultaneous imaging of fluorescence changes in the microplate. The typical reaction volume of a thermal shift assay is 20 μl, which includes the protein solution, the test compound solution, and the sypro orange. The temperature in the real-time PCR machine during the thermal shift assay was ramped 0.5° C./minute till 100° C.\nThe C-terminal domain of LOX-1 was expressed by using the protocols reported earlier^12. As this domain contains several disulfide bridges, it was co-expressed with DsbC, a Chaperone disulfide isomerase. The genes were custom synthesized by Genscript (Piscataway, N.J.) using gene map described in Park el al^12. It encodes for 147 amino acids for the LOX-1 fragment (residues 136-273) and 236 amino acids for DsbC. The gene was incorporated into a pET15b vectors by Genscript. The vectors were then transformed into Dh5α cells for amplification and BL21 (DE3) E. coli (Novagen) cells for expression. The proteins were expressed by adding 0.4 mM isopropyl β-D-thiogalactoside in E. coli cells grown in LB medium containing kanamycin, tetracycline, and carbenicillin at 23° C., with 250 rpm agitation, for 20 h. The protein was purified using a nickel-nitrilotriacetic acid column (Qiagen, Valencia, Calif.). And then, the protein samples were concentrated to 10 mg/ml.\nLOX-1 protein was incubated with fluorescent dye Sypro Orange (Invitrogen/Life Technologies, Grand Island, N.Y.) and the thermal unfolding of the LOX-1 protein was monitored by measuring the fluorescence using Bio-Rad Real Time PCR machine. We measured the melting temperatures in the absence and presence of the inhibitors 4 tM of LOX-1 protein was incubated with Sypro Orange and heated in stepwise increments of 0.5° C. per min from 25-99° C. The wavelength for excitation was set to 490 and emission was set to 575 nm for Sypro Orange. Fluorescence was measured after every minute for each 0.5° C. increase."}, "ERK1/2": {"system": "ERK1/2", "experiment": "ox-LDL-induced activation (phosphorylation) of ERK1/2 in HUVECs (Western blotting)", "assay_type": "cell-based, human", "details": "200 nM", "procedure": "(§1) FIG. 4A, FIG. 4B, FIG. 4C, FIG. 4D and FIG. 4E depict the effect of lead molecules on ox-LDL-induced the activation of MAPKs in HUVECs, VCAM-1 expression and monocyte adhesion onto HUVECs. […] (FIG. 4B) Western blot analyses showing phospho-p38MAPK expression in HUVECs following exposure to 200 nM of each compound for 30 min, and subsequently exposed to 5 μg/mL ox-LDL for 6 hours. […] (FIG. 4D) The variation of VCAM-1 mRNA expression levels with different concentrations of the led compounds. The concentrations are indicated on the X-axis and the VCAM-1 mRNA levels are shown on the Y-axis. The plots for all five molecules are shown in separate colors. […] Graphs show data as mean (±SD); n=3 (for Western blot and PCR assays) or n=20 (for monocyte adhesion assay). *P<0.01 vs. control; #P<0.01 or <0.05 vs. ox-LDL group.\n(§2) To assess downstream effects of each candidate molecule, ox-LDL induced expression and activation of ERK1/2 and P38MAPK was measured in HUVECs in the absence or presence of each candidate molecule (200 nM). […] Importantly, unphosphorylated MAPKs were not affected by any of the candidate molecules.\n(§3) HUVECs were plated into 6-well cell culture plates. When the cells were reached 70% confluence, they were treated with 200 nM of each of 5 molecules for 30 min, and subsequently exposed to […] ox-LDL for 6 h. After washing with PBS for 2 times, the cells were treated with Cell Lysis Buffer (Promega, Madison, Wis.) with protease Inhibitor and phosphatase Inhibitor (Sigma-Aldrich, St. Louis, Mo.). The protein concentrations were measured by Bradford protein assay. Proteins (20 tg) were separated by electrophoresis in 12% precast SDS-PAGE gels, and were transferred onto Nitrocellulose Blotting Membrane (GE Healthcare Life Science, Piscataway, N.J.). The membranes were then incubated with LOX-1, VCAM-1 (Abcam, Cambridge, Mass.), ERK1/2, phospho-ERK1/2, phospho-p38MAPK (Cell Signaling Technology, Inc., Danvers, Mass.), or […] (Santa Cruz Biotechnology, Inc., Dallas, Tex.) primary antibodies (1:1000˜1:2000) in blocking solution at 4° C. overnight. Following wash with TBS-1 for 3 times, the blots were incubated with HRP-conjugated secondary antibodies (1:10000) in blocking solution for 1 hour at room temperature. After 3 washes with PBS, the blots were treated with Western Blotting Luminol Reagents (Santa Cruz Biotechnology) for 3 min and then exposed to Blue Basic Autorad Film (GeneMate, Kaysville, Utah). The protein bands were scanned by a Gel Doc™ XR System (Bio-Rad, Hercules, Calif.), and the density of each band was quantified by Image J software. The relative expression of target proteins was calculated with comparison to […] bands."}, "P38 MAPK": {"system": "P38 MAPK", "experiment": "ox-LDL-induced activation (phosphorylation) of P38 MAPK in HUVECs (Western blotting)", "assay_type": "cell-based, human", "details": "200 nM", "procedure": "as §1, §2, §3"}}, "note": "Entries after “also recorded” stand apart in the source; their conditions may differ."}
{"smiles": "CCOCCCNC(=O)CCN1C(=O)COc2ccccc21", "note": "[Mol-1]", "values": [{"measurement": "thermal shift (in words)", "setting": "human LOX-1", "value": "did not show measurable shifts"}, {"measurement": "effect on ox-LDL-induced activation/phosphorylation of ERK1/2 (in words)", "setting": "ERK1/2", "value": "significantly inhibited; also recorded: moderately"}, {"measurement": "effect on ox-LDL-induced activation of P38 MAPK (in words)", "setting": "P38 MAPK", "value": "significantly inhibited"}, {"measurement": "reduction of the level of phospho-P38 MAPK", "setting": "P38 MAPK", "value": "around 60%"}]}
{"smiles": "CC(C)(C)C(=O)NCCc1nc2ccccc2n1Cc1ccccc1F", "note": "[Mol-2]", "values": [{"measurement": "thermal shift (in words)", "setting": "human LOX-1", "value": "did not show measurable shifts"}, {"measurement": "effect on ox-LDL-induced activation/phosphorylation of ERK1/2 (in words)", "setting": "ERK1/2", "value": "no significant effect"}, {"measurement": "effect on ox-LDL-induced activation of P38 MAPK (in words)", "setting": "P38 MAPK", "value": "no significant effect"}]}
{"smiles": "CCCn1c(CCNC(=O)CCCO)nc2ccccc21", "note": "[Mol-4]", "values": [{"measurement": "thermal shift of LOX-1 protein", "setting": "human LOX-1", "value": 10, "unit": "°"}, {"measurement": "thermal shift (in words)", "setting": "human LOX-1", "value": "significant thermal shift"}, {"measurement": "effect on ox-LDL-induced activation/phosphorylation of ERK1/2 (in words)", "setting": "ERK1/2", "value": "potently reduced"}, {"measurement": "effect on ox-LDL-induced activation/phosphorylation of ERK1/2 (in words)", "setting": "ERK1/2; listed as MoL-4", "value": "significantly inhibited"}, {"measurement": "effect on ox-LDL-induced activation of P38 MAPK (in words)", "setting": "P38 MAPK", "value": "significantly inhibited"}, {"measurement": "reduction of the level of phospho-P38 MAPK", "setting": "P38 MAPK", "value": "around 60%"}]}
{"smiles": "Cc1cc(C)n(CC(O)COc2ccccc2)n1", "note": "(stereo not drawn) [Mol-5, 1-(3,5-dimethyl-1H-pyrazol-1-yl)-3-phenoxypropan-2-ol]", "values": [{"measurement": "thermal shift of LOX-1 protein", "setting": "human LOX-1", "value": 4, "unit": "°"}, {"measurement": "thermal shift (in words)", "setting": "human LOX-1", "value": "significant thermal shift"}, {"measurement": "effect on ox-LDL-induced activation/phosphorylation of ERK1/2 (in words)", "setting": "ERK1/2", "value": "significantly inhibited; also recorded: maximum inhibition; also recorded: potently reduced"}, {"measurement": "effect on ox-LDL-induced activation of P38 MAPK (in words)", "setting": "P38 MAPK", "value": "significantly inhibited; also recorded: maximum inhibition"}, {"measurement": "reduction of the level of phospho-P38 MAPK", "setting": "P38 MAPK", "value": 75, "unit": "%"}]}
